Target: T1, HCV NS3 helicase NS3h_1b(con1) (Hepatitis C virus genotype 1b, UniProt Q9WMX2)
T1 construct: truncated C-terminally His-tagged NS3 proteins lacking the N-terminal protease, called NS3h; His-tag (C); made in house
Assay: MBHA screen of NCI mechanistic set library at 20 μM (percent inhibition, compound interference)
Assay type: biochemical
Settings: compounds at 20 μM; for Inh. (%) (Inhibition): calculated from Equation 1
Outline: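 Molecular beacon-based DNA unwinding assay; compounds screened at 20 μM in triplicate, with DMSO-only negative and 500 nM dT20 positive controls. Fluorescence (ex 643/em 670 nm) was read before and 30 min after adding ATP to 1 mM. Percent inhibition came from the change relative to DMSO controls; interference from pre-ATP fluorescence versus DMSO controls.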

[1] = assay interference calculated with Equation 2 (fluorescence vs DMSO-only controls before ATP)
[2] = MBHA with DNA substrate, assay interference calculated with Equation 2

T1 sequence (Q9WMX2 1192-1657): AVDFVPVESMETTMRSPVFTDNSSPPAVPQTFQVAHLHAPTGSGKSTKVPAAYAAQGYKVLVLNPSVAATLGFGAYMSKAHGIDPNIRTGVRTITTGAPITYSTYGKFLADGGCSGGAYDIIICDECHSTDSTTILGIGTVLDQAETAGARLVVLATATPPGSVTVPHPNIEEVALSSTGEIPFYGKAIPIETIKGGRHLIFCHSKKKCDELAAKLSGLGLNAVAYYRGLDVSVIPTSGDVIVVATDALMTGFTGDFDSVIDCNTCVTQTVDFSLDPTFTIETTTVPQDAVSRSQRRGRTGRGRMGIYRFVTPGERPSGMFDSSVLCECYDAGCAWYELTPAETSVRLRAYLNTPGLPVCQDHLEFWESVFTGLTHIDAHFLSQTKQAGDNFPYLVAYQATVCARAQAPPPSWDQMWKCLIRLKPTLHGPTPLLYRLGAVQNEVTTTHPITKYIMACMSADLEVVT

Row | Inh. (%) (Inhibition) (MBHA with a DNA substrate) | Int.* (Ratio) (Interference) [1] | Int.* (Ratio) (Interference) [2] | Inh. (%) (Inhibition) (MBHA with DNA substrate) | Compound
1 | 7.9% | 0.97 Ratio |  |  | NC(=Nc1nc(-c2ccccn2)cc2ccccc12)c1ccccn1 [Compound 637578]
2 |  |  | 0.91 Ratio | 21.2% | CCOc1ccccc1NC(=O)CC1Sc2ccccc2NC1=O (centres unmarked) [Compound 637680]
3 | −3.8% | 0.97 Ratio |  |  | O=C1C=C(Nc2cccnc2)c2ccccc2C1=O [Compound 637729]
4 | −5.3% | 1.07 Ratio |  |  | O=C1C=C(NCCc2ccccc2)c2ccccc2C1=O [Compound 637731]
5 |  |  | 0.80 Ratio | −17.2% | CC(=O)SC(SC(C)=O)SC(C)=O [Compound 637833]
6 |  |  | 1.01 Ratio | −11.0% | N#CCCN(c1ccc(C=O)cc1)S(=O)(=O)c1ccccc1 [Compound 637914]
7 |  |  | 0.97 Ratio | 1.1% | N#CCCN(CCC#N)c1ccc(/C=C2/N=C(c3cc([N+](=O)[O-])ccc3Cl)OC2=O)cc1 [Compound 637916]
8 |  |  | 0.77 Ratio | 37.7% | CCN(CC)CCNc1ccc2nc(C)n3c4ccc(OC)cc4c(=O)c1c23.Cl [Compound 637993]
9 |  |  | 0.89 Ratio | 56.2% | O=S(=O)(O)c1cc(N=Nc2cc(S(=O)(=O)O)c3cccnc3c2O)ccc1/C=C/c1ccc(N=Nc2cc(S(=O)(=O)O)c3cccnc3c2O)cc1S(=O)(=O)O [Compound 638352]
10 |  |  | 0.90 Ratio | −2.7% | COc1ccc2ccccc2c1C1OC(=O)c2ccccc21 (centres unmarked) [Compound 638504]
11 | −20.4% | 0.86 Ratio |  |  | O=C1/C(=C\c2ccccc2)CN(C(=O)/C=C/c2ccccc2)C/C1=C\c1ccccc1 [Compound 638634]
12 | −3.1% | 0.76 Ratio |  |  | Cl.O=C1/C(=C\c2ccc(Cl)c(Cl)c2)CN(C(=O)CCN2CCOCC2)C/C1=C\c1ccc(Cl)c(Cl)c1 [Compound 638646]
13 |  |  | 1.14 Ratio | −18.3% | CCOC(=O)Nc1nc2ccc(Cn3cccc3)cc2[nH]1 [Compound 639754]
14 |  |  | 1.05 Ratio | 23.0% | Nc1ccccc1C(=O)NC(=O)Nc1ccc(Oc2ncc(Br)cn2)c(Cl)c1 [Compound 639828]
15 |  |  | 0.70 Ratio | 76.4% | CCN(CC)CCN1C(=O)c2c(c3c4cccc(Cl)c4n(C4OC(CO)C(OC)C(O)C4O)c3c3[nH]c4c(Cl)cccc4c23)C1=O (centres unmarked) [Compound 640199]
16 | −24.2% | 0.91 Ratio |  |  | Cc1nc(Nc2ccc(Cl)c(Cl)c2)sc1C(/C=C/c1ccc2c(c1)OCO2)=N/Nc1ccc([N+](=O)[O-])cc1[N+](=O)[O-] [Compound 640335]
17 | −22.4% | 0.95 Ratio |  |  | Cc1ccc(Nc2nc(C)c(C(/C=C/c3ccc(/C=C/C(=N\NC(=O)C[n+]4ccccc4)c4sc(Nc5ccc(C)cc5[N+](=O)[O-])nc4C)cc3)=N/NC(=O)C[n+]3ccccc3)s2)c([N+](=O)[O-])c1.Cl [Compound 640342]
18 | 10.6% | 1.09 Ratio |  |  | CN(C)C[C@H]1CC[C@@H](CN(C)C)C1=O.Cl.Cl [Compound 640391]
19 | −25.9% | 0.91 Ratio |  |  | OCCOc1ccc(-c2cc(-c3ccccn3)nc(-c3ccccn3)c2)cc1 [Compound 640499]
20 |  |  | 0.91 Ratio | 71.1% | CCNCCCCNCCCCNCCCCNCCCCNCC.Cl [Compound 640506]
21 | −32.9% | 1.09 Ratio |  |  | Cc1nc(-c2cccnc2)sc1C(=O)/C=C/c1ccc(Cl)cc1Cl [Compound 640580]
22 | 9.6% | 0.90 Ratio |  |  | Cc1nc(-n2nc(-c3ccccc3)cc2-c2ccccc2)sc1C(=O)/C=C/c1ccc(Cl)c(Cl)c1 [Compound 640584]
23 | −4.2% | 1.11 Ratio |  |  | CC1=CC(C)(C)N=C2SC(c3ccc(N)cc3)=NN12 [Compound 640624]
24 | −3.0% | 0.86 Ratio |  |  | S=C(Nc1ccccc1)N(/N=C/C=C/c1ccccc1)c1nnc(-c2ccccc2)c(-c2ccccc2)n1 [Compound 640637]
25 |  |  | 0.93 Ratio | −7.0% | BrC(/C=N/Nc1nnc(-c2ccccc2)c(-c2ccccc2)n1)C(Br)c1ccccc1 (centres unmarked) [Compound 640638]
26 | −33.1% | 0.87 Ratio |  |  | N#Cc1ccccc1NC(=O)C(=O)C(C(=O)c1ccccc1F)C1OC(=O)c2ccccc21 (centres unmarked) [Compound 640974]

Row | Inh. (%) (Inhibition) (MBHA with a DNA substrate) | Int.* (Ratio) (Interference) [1] | Int.* (Ratio) (Interference) [2] | Inh. (%) (Inhibition) (MBHA with DNA substrate) | Compound
27 |  |  | 0.97 Ratio | −10.5% | Cc1ccc(C)c(NC(=O)C(=O)C(C(=O)c2ccc3ccccc3c2)C2OC(=O)c3ccccc32)c1 (centres unmarked) [Compound 640985]
28 | −39.7% | 0.92 Ratio |  |  | Cc1ccccc1NC(=O)C(=O)C(C(=O)c1ccccc1F)C1OC(=O)c2ccccc21 (centres unmarked) [Compound 641228]
29 |  |  | 0.91 Ratio | −13.1% | O=C(NC1=C(Cl)C(=O)c2ccccc2C1=O)C(=O)C(C(=O)c1ccc2ccccc2c1)C1OC(=O)c2ccccc21 (centres unmarked) [Compound 641233]
30 |  |  | 0.88 Ratio | −14.8% | COC(=O)c1ccccc1NC(=O)C(=O)CC(=O)c1ccccc1NC1=CC(=O)C(=O)c2ccccc21 [Compound 641240]
31 |  |  | 0.89 Ratio | −13.7% | O=C(CC(=O)c1ccccc1NC1=Cc2ccccc2C(=O)C1=O)C(=O)NC1=C(Cl)C(=O)c2ccccc2C1=O [Compound 641245]
32 |  |  | 0.95 Ratio | −13.6% | O=C1C=C(Nc2ccccc2C(=O)CC(=O)C(=O)Nc2ccc(Cl)c(Cl)c2)c2ccccc2C1=O [Compound 641250]
33 | −34.2% | 0.95 Ratio |  |  | O=C1C=C(Nc2ccccc2C(=O)CC(=O)C(=O)Nc2ccc(Cl)cc2)c2ccccc2C1=O [Compound 641253]
34 |  |  | 1.03 Ratio | 29.4% | COc1ccc(/C(=N/O)C(c2ccc(OC)cc2)C2C(=O)Oc3ccccc32)cc1 (centres unmarked) [Compound 641607]
35 |  |  | 0.99 Ratio | 1.4% | CCc1cccc(C(C)C)c1NC(=O)/C(=N\NC(N)=O)C(C(=O)OC)c1cnc2ccccc2n1 (centres unmarked) [Compound 642033]
36 | −3.2% | 0.90 Ratio |  |  | COC(=O)C(=O)C(C(=O)C(=O)Nc1cc(C)ccc1C)c1nc2ccc(C(=O)c3ccccc3)cc2[nH]c1=O (centres unmarked) [Compound 642040]
37 |  |  | 0.99 Ratio | −11.3% | Cc1nc(C(N)=S)sc1C(=O)CC(=O)C(=O)Nc1c(C(C)C)cccc1C(C)C [Compound 642048]
38 |  |  | 1.05 Ratio | −11.2% | O=C(c1nc2ccc(Cl)cc2[nH]c1=O)C(O)c1ccc2c(c1)OCO2 (centres unmarked) [Compound 642649]
39 | −19.4% | 0.96 Ratio |  |  | COc1ccc(/C=C\c2cc(OC)c(OC)c(OC)c2)cc1OP(=O)(O)O.N [Compound 643001]
40 |  |  | 0.96 Ratio | −13.0% | N#CC(C#N)=Cc1ccc(Oc2ccccc2)cc1 [Compound 643028]
41 |  |  | 1.08 Ratio | −0.1% | N#CC(C#N)=Cc1cccc(Oc2ccccc2)c1 [Compound 643031]
42 | −20.3% | 0.98 Ratio |  |  | O=C1c2ccccc2C(=O)C1C(c1ccc([N+](=O)[O-])cc1)C1C(=O)c2ccccc2C1=O [Compound 643148]
43 |  |  | 1.02 Ratio | −2.2% | CN(C)c1ccc(/C=C2\CCc3ccccc3C2=O)cc1Br [Compound 643162]
44 |  |  | 1.09 Ratio | −12.3% | CN(C)c1ccc(/C=C2\Cc3ccccc3C2=O)cc1Br [Compound 643163]
45 |  |  | 0.86 Ratio | 14.9% | CN(C)c1ccc(/C=C/C(=O)c2ccccc2)cc1Br [Compound 643164]
46 |  |  | 1.07 Ratio | −9.6% | COc1ccc(/C=C2\Cc3ccccc3C2=O)cc1OC [Compound 643174]
47 |  |  | 0.93 Ratio | −17.5% | COc1ccc(/C=C2\CCc3ccccc3C2=O)cc1OC [Compound 643175]
48 | −21.0% | 1.04 Ratio |  |  | N#C/C(=C\c1ccc2ccccc2c1)C(=O)c1ccccc1 [Compound 643186]
49 | −20.4% | 0.89 Ratio |  |  | CN(C)c1ccc(/C=C/C(=O)[O-])cc1.CN(C)c1ccc(/C=C/C(=O)[O-])cc1.[Cu+2] [Compound 643351]
50 |  |  | 0.90 Ratio | 14.6% | CCOC(=O)/C(=C/c1ccc(N(C)C)cc1)N(CC)CC [Compound 643774]
51 | −5.7% | 0.91 Ratio |  |  | COc1ccc(/C=C/c2cc(OC)c(OC)c(OC)c2)cc1OP(=O)(O)O [Compound 643812]
52 | −3.8% | 0.89 Ratio |  |  | CCCCCCCCCCCCCCCCCCN(C)C(COC)COP(=O)([O-])OCC[N+](C)(C)C (centres unmarked) [Compound 643826]

Reference: patent US9464064B2, “HCV helicase inhibitors and methods of use thereof” (University of Kansas, priority 2011, dated 2016)
